Inhibition in vivo, melting point and EC50 data for 13 compounds are collected here from patent US20060148858A1, “1, 2-Azole derivatives with hypoglycemic and hypolipidemic activity” (priority 2002, published 2006).

Structures are written as SMILES. Where two headings read alike, the source gives them in different places.

The subject of one series is KKAY mice. The experiment in a line: Hypoglycemic and hypolipidemic actions in mice (Test Example 1). The format is in vivo. Particulars: Mus musculus, po, 96 h, 0.005% in powdery diet, four days, non-treated group taken as 100%. On the procedure: Test compounds were mixed in a powdery diet (CE-2, Japan Clea) at the concentration of 0.005%, and freely given to KKAY mice (9 to 12 weeks old, 5 mice in a group), a model of obese and non-insulin dependent diabetes (type 2 diabetes), for four days. During this period, water was given freely. Blood was sampled from orbital venous plexus, and glucose and triglyceride levels in plasma separated from blood were determined enzymatically using L type Wako Glu2 (Wako Pure Chemical Industries, Ltd.) or L type Wako TG·H (Wako Pure Chemical Industries, Ltd.), respectively.
In the table, “hypoglycemic action (%)” means the rate of decrease (%) in the blood glucose level of the treated group when the blood glucose level of the non-treated group is taken as 100%. In addition, the “hypolipidemic action (%)” means the rate of decrease (%) in the blood triglyceride level of the treated group when the blood triglyceride level of the non-treated group is taken as 100%.

In the next series the target is T1, PPARγ-RXRα heterodimer (Homo sapiens, UniProt P37231).
T1 construct: expressed in transfected cells; host or cells: CHO-K1
T1 sequence (P37231 1-477 isoform P37231-2): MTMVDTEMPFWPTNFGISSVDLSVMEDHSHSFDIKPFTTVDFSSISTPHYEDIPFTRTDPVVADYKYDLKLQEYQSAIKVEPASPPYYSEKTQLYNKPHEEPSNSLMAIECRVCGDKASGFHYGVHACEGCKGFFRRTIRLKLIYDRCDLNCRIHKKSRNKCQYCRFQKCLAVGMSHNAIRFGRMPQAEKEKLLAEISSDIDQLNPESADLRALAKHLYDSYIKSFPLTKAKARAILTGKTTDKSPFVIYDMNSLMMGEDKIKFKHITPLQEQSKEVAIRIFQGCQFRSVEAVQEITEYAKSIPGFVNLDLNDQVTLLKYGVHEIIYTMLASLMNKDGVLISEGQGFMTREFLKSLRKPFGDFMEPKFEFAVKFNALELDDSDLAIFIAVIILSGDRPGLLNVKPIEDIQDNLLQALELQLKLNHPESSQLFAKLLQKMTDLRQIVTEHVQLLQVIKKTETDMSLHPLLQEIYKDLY
T1 sequence (P19793 1-462 partner): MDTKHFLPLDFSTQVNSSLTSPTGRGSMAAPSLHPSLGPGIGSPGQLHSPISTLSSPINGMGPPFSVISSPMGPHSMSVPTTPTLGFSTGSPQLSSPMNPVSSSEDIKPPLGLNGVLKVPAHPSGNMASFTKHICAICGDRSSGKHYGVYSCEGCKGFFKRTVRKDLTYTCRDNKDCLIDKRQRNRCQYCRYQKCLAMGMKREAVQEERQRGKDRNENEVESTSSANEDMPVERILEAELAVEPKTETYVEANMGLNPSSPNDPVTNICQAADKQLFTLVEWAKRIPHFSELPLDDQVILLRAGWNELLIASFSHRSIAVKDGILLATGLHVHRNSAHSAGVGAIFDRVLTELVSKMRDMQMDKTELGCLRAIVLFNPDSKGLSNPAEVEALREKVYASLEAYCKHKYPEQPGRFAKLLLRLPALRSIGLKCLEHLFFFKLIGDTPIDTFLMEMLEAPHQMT
Description: PPARγ-RXRα heterodimer ligand activity, luciferase reporter in PPARγ:RXRα:4ERPP/CHO-K1 cells (Test Example 3). The format is cell-based. Particulars: 18-48 hours, concentration for 50% of the maximum fold induction. As to the method: A PPARγ: RXRα: 4ERPP/CHO-K1 cells obtained in Reference Example 8a described later were cultured in HAM F12 medium (produced by Life Technologies, Inc., USA) containing 10% Fetal bovine serum (produced by Life Technologies, Inc., USA) and then inoculated to a 96-well white plate (produced by Corning Costar Corporation, USA) at the density of 2×10^4 cells/well, and cultured in a CO2 gas incubator at 37° C. overnight.
After removing the medium from 96 well white plate, 80 μl of HAM F12 medium containing 0.1% fatty acid-free bovine serum albumin (BSA) and 20 μl of test compound were added, which was cultured in a CO2 gas incubator at 37° C. for 18-48 hours. After removing the medium, 40 μl of PIKKAGENE 7.5 (produced by Wako Pure Chemical Industries, Ltd.) diluted twice with HBSS (HANKS' BALANCED SALT SOLUTION)(produced by BIO WHITTAKER Inc., USA), was added. After stirring, the luciferase activity was determined using 1420 ARVO Multilabel Counter (produced by PerkinElmer Inc., USA).
A fold induction was calculated based on the luciferase activity of each test compound by taking the luciferase activity in the non-treatment group as 1. The values of the test compound concentration and the fold induction were analyzed using PRISM (produced by GraphPad Software Inc. USA) to calculate the EC50 values, the effective concentration of a test compound for 50% of the maximum fold induction.
After a CHO-K1 cell cultured in a 150 cm^2 cell culture flask (750 ml)(produced by Corning Costar Corporation, USA) containing HAM F12 medium (produced by Life Technologies, Inc., USA) supplemented with 10% Fetal Bovine Serum (produced by Life Technologies, Inc., USA) was scraped by treating with 0.5 g/L trypsin-0.2 g/L EDTA (ethylenediaminetetraacetic acid) (produced by Life Technologies, Inc., USA), the cell was washed with PBS (phosphate-buffered saline) (produced by Life Technologies, Inc., USA), centrifuged (1000 rpm, 5 minutes), and then suspended in PBS. Subsequently, a DNA was introduced into the cell under the condition shown below using GENE PULSER (produced by Bio-Rad Laboratories, USA).
Namely, to a cuvette having a 0.4 cm gap, added were 8×10^6 cells and 10 μg of plasmid pVgRXR2-hPPARγ obtained in Reference Example 7a and 10 μg of reporter plasmid pGL3-4ERPP-TK neo obtained in Reference Example 5a, which was subjected to electroporation at the voltage of 0.25 kV under the capacitance of 960 μF. Subsequently, the cell was transferred into a HAM F12 medium containing 10% Fetal Bovine Serum and cultured for 24 hours and then the cell was scraped again and centrifuged, and then suspended in HAM F12 medium containing 10% Fetal Bovine Serum supplemented with 500 μg/ml of GENETICIN (produced by Life Technologies, Inc., USA) and 250 μg/ml of ZEOCIN (produced by Invitrogen, USA). The obtained suspension was diluted to the density of 10^4 cells/ml and inoculated to a 96-well plate (produced by Corning Costar Corporation, USA), which was cultured in a CO2 gas incubator at 37° C., whereby obtaining a GENETICIN- and ZEOCIN-resistant transformant.
Subsequently, after the transformant cell line thus obtained was cultured in a 24-well plate (produced by Corning Costar Corporation, USA), selected was a cell line in which the luciferase was expressed and induced, i.e., PPARγ:RXRα:4ERPP/CHO-K1 cell by addition of 10 μM of pioglitazone hydrochloride.
For orientation: In a reporter assay the amount or activity of a reporter protein is the signal.

The mark [1] stands for this setting: rate of decrease in blood glucose level, read-out: Hypoglycemic action (%).
[2] abbreviates: rate of decrease in blood triglyceride level, read-out: Hypolipidemic action (%).

`CCCCc1nn(-c2ccc(C(F)(F)F)cn2)cc1CCCOc1c(CC(=O)O)cccc1OC` [Example 197, [2-(3-{3-butyl-1-[5-(trifluoromethyl)-2-pyridyl]-1H-pyrazol-4-yl}propoxy)-3-methoxyphenyl]acetic acid] returned a melting point of 121 to 122 °C. Further, the inhibition in vivo at 0.005 % in diet in the series with KKAY mice (setting [1]) is 45%. In addition, in the series on KKAY mice (setting [2]), the inhibition in vivo at 0.005 % in diet was 65%. Besides, at PPARγ-RXRα heterodimer, the EC50 came to 22 nM.

`CCCCc1nn(-c2ccc(C(F)(F)F)cn2)cc1CCCOc1ccccc1CC(=O)O` [Example 198, [2-(3-{3-butyl-1-[5-(trifluoromethyl)-2-pyridyl]-1H-pyrazol-4-yl}propoxy)phenyl]acetic acid]: the melting point fell in the range of 106 to 107 °C. The compound also gave an EC50 on PPARγ-RXRα heterodimer of 30 nM.

As to `O=C(O)Cc1cccc(F)c1OCCCc1cn(-c2ccc(C(F)(F)F)cn2)nc1C1CCCCC1` [Example 210, [2-(3-{3-cyclohexyl-1-[5-(trifluoromethyl)-2-pyridyl]-1H-pyrazol-4-yl}propoxy)-3-fluorophenyl]acetic acid], the melting point was 149 to 150 °C. Moreover, the EC50 at PPARγ-RXRα heterodimer amounted to 16 nM.

As for `CCC(CC)c1nn(-c2ccc(C(F)(F)F)cn2)cc1CCCOc1c(F)cccc1CC(=O)O` [Example 214, [2-(3-{3-(1-ethylpropyl)-1-[5-(trifluoromethyl)-2-pyridyl]-1H-pyrazol-4-yl}propoxy)-3-fluorophenyl]acetic acid], the melting point is 102 to 103 °C. Besides, the inhibition in vivo at 0.005 % in diet in the series with KKAY mice (setting [1]) amounted to 44%. In addition, in the series with KKAY mice (setting [2]), the inhibition in vivo at 0.005 % in diet was determined as 52%. This compound also displayed an EC50 at PPARγ-RXRα heterodimer of 18 nM.

`CCC(CC)c1nn(-c2ccc(C(F)(F)F)cn2)cc1CCCOc1ccccc1CC(=O)O` [Example 215, [2-(3-{3-(1-ethylpropyl)-1-[5-(trifluoromethyl)-2-pyridyl]-1H-pyrazol-4-yl}propoxy)phenyl]acetic acid]: the melting point is 65 to 66 °C. For the same compound, in the series on KKAY mice (setting [1]), the inhibition in vivo at 0.005 % in diet is 50%. Besides, the inhibition in vivo at 0.005 % in diet with KKAY mice (setting [2]) is 45%. The compound further gave an EC50 on PPARγ-RXRα heterodimer of 20 nM.

In turn, `CCC(C)c1nn(-c2ccc(C(F)(F)F)cn2)cc1CCCOc1c(CC(=O)O)cccc1OC` (stereo not drawn) [Example 216, [3-methoxy-2-(3-{3-(1-methylpropyl)-1-[5-(trifluoromethyl)-2-pyridyl]-1H-pyrazol-4-yl}propoxy)phenyl]acetic acid] returned a melting point of 117 to 118 °C. Also, the inhibition in vivo at 0.005 % in diet in the series with KKAY mice (setting [1]) was 46%. In addition, in the series with KKAY mice (setting [2]), the inhibition in vivo at 0.005 % in diet is 61%. Besides, the EC50 on PPARγ-RXRα heterodimer was found to be 18 nM.

In turn, `COc1cccc(CC(=O)O)c1OCCCc1cn(-c2ccc(Br)cn2)nc1C(C)C` [Example 218, (2-{3-[1-(5-bromo-2-pyridyl)-3-isopropyl-1H-pyrazol-4-yl]propoxy}-3-methoxyphenyl)acetic acid] registered a melting point of 152 to 153 °C. The inhibition in vivo at 0.005 % in diet in the series with KKAY mice (setting [1]) came to 34%. In addition, in the series on KKAY mice (setting [2]), the inhibition in vivo at 0.005 % in diet was 43%. The compound further yielded an EC50 on PPARγ-RXRα heterodimer of 51 nM.

The compound `COc1cccc(CC(=O)O)c1OCCCc1cn(-c2ccc([N+](=O)[O-])cn2)nc1C(C)C` [Example 270, (3-methoxy-2-{3-[3-isopropyl-1-(5-nitro-2-pyridyl)-1H-pyrazol-4-yl]propoxy}phenyl)acetic acid] registered a melting point of 161 to 162 °C. Further, the EC50 at PPARγ-RXRα heterodimer amounted to 99 nM.

Turning to `COc1cccc(CC(=O)O)c1OCCCc1cn(-c2ccc(F)cn2)nc1C(C)C` [Example 273, (2-{3-[1-(5-fluoro-2-pyridyl)-3-isopropyl-1H-pyrazol-4-yl]propoxy}-3-methoxyphenyl)acetic acid], the melting point was in the range of 125 to 126 °C. At PPARγ-RXRα heterodimer, this compound showed a half-maximal effective concentration (EC50) of 90 nM.

In turn, `COc1ccc(-n2cc(CCCOc3c(CC(=O)O)cccc3OC)c(C(C)C)n2)nn1` [Example 277, (3-methoxy-2-{3-[1-(6-methoxypyridazin-3-yl)-3-isopropyl-1H-pyrazol-4-yl]propoxy}phenyl)acetic acid] returned a melting point of 124 to 125 °C. The EC50 at PPARγ-RXRα heterodimer worked out at 36 nM.

The compound `CCOc1cccc(CC(=O)O)c1OCCCc1cn(-c2ccc(C(F)(F)F)cn2)nc1C1CCCCC1` [Example 306, [2-(3-{3-cyclohexyl-1-[5-(trifluoromethyl)-2-pyridinyl]-1H-pyrazol-4-yl}propoxy)-3-ethoxyphenyl]acetic acid] gave a melting point of 156 to 157 °C. For the same compound, at PPARγ-RXRα heterodimer, the EC50 was determined as 17 nM.

`COc1cccc(CC(=O)O)c1OCCCc1cn(-c2ccc(C(F)(F)F)cn2)nc1C1CCCCC1` [Example 307, [2-(3-{3-cyclohexyl-1-[5-(trifluoromethyl)-2-pyridinyl]-1H-pyrazol-4-yl}propoxy)-3-methoxyphenyl]acetic acid] gave a melting point of 140 to 141 °C. Besides, at PPARγ-RXRα heterodimer, the EC50 amounted to 23 nM.

In turn, `CCCCc1nn(-c2ccc(C(F)(F)F)cn2)cc1CCCOc1nn(CC)cc1CC(=O)O` [Example 334, [3-(3-{3-butyl-1-[5-(trifluoromethyl)-2-pyridinyl]-1H-pyrazol-4-yl}propoxy)-1-ethyl-1H-pyrazol-4-yl]acetic acid] came in with a melting point of 109 to 110 °C. In addition, a half-maximal response at PPARγ-RXRα heterodimer (EC50) required 74 nM.

As usually defined, the melting point is the temperature, or range, at which the solid turns liquid. The term EC50 denotes the midpoint of the concentration-response curve. A higher EC50 goes with weaker potency.
